Results on 3 molecules are retold here after US4918193A, “Methods for preparing 3-[N-phenyl-acetylaminopiperidine]-2,6-dion” (priority 1989, dated 1990).

The structures appear in SMILES notation. Entries after “also recorded” stand apart in the source; their conditions may differ. Where a name gives a salt, the structure may show the parent alone. Read-outs that look alike come from different tables or passages of the source.

Data set [1] is described as follows: Hydrolysis of the sodium salt upon standing. It is filed as physicochemical. The procedure:
Five thousand grams of 3-[N-phenylacetylaminopiperidine]-2,6-dion was pulverized in a grinder, then suspended in 44 liters of pyrogen-free water. Concentrated sodium hydroxide in pyrogen-free water was added stepwise and stirred until all the powder was dissolved. The pH of the mixture was 7.0. Activated charcoal (U.S.P.) was added and stirred for 45 minutes, and then filtered. The concentration of the filtrate was adjusted to 103 mg/ml with pyrogen free water. The filtrate was then processed according to standard U.S.P. procedure for large volume injections of single dose infusions.

The test system of data set [2] is advanced neoplastic diseases. Description: Phase I clinical studies, 500 mg capsules (Example 1). It is filed as in vivo, human. Conditions: 500 mg capsules daily. How it is done:
The phase I clinical studies with 3-[N-phenylacetylaminopiperidine]-2,6-dion 500 mg capsules involved 42 patients diagnosed with 49 types of advanced neoplastic diseases. The formulation was administered daily for from 6 to 314 days. The highest dosage taken was 288.4 mg/kg/24 hours. […] Positive clinical response was obtained in 75% of 49 treated cases.

Data set [3] can be described thus: Acute toxicity in mice, intraperitoneal injection.
The subject of data set [4] is human neoplastic diseases. Description: Treatment of various human neoplastic diseases (general clinical statement). It is filed as in vivo. How it is done: Various human neoplastic diseases were treated with 3-[N-phenylacetylaminopiperidine]-2,6-dion or its degradation products.
The next data set relates to Rd/3 sarcoma. The note with it: rats, Neish, Experientia, 27: 860 (1971), cited from earlier work.

As to `O=C1CCC(NC(=O)Cc2ccccc2)C(=O)N1` (stereo not shown) [3-[N-phenylacetylaminopiperidine]2,6-dion sodium salt], the “basic hydrolysis upon standing” value in data set [1] is “undergoes basic hydrolysis to form the sodium salts of phenylacetyl glutamine and phenylacetyl isoglutamine”.
For the molecule `O=C1CCC(NC(=O)Cc2ccccc2)C(=O)N1` (stereo not shown) [3-[N-phenylacetylaminopiperidine]-2,6-dion], in data set [2], the “best clinical effects observed in” value is “chronic myelocytic leukemia and chronic lymphocytic leukemia, adenocarcinoma of the prostate, carcinoma of the breast and glioma”; the desirable side effects entry was “decrease of plasma levels of triglycerides and cholesterol; also recorded: increase of white blood cell count, red blood cell count and platelet count; also recorded: improvement of blood clotting”. Further, the adverse reactions result in data set [2] (highest dosage 288.4 mg/kg/24 hours) is “minimal adverse reactions, including excessive gas, gastrointestinal bleeding (most likely not related to 3-[N-phenylacetylaminopiperidine]-2,6-dion but to primary disease), moderately increased blood pressure, skin rash, vertigo, hypokalemia, hypoglycemia and mild myelosuppression”. Further, in data set [2] (of 49 treated cases, 6 to 314 days), the Positive clinical response came to 75%. Besides, the “autopsy and microscopic findings in animals which died” value in data set [3] (HA/ICR swiss mice, intraperitoneal) is “congestion of the liver and marked pulmonary edema”. Besides, the “acute toxicity, overall” value in data set [3] (experimental animals) is on record as “very low toxicity”. Also, the “observation of surviving animals” value in data set [3] (kept one week under close observation) is recorded as “normal activity”. The “autopsy and microscopic examination of tissues of surviving animals” value in data set [3] (sacrificed after a week, versus control uninjected subjects) is recorded as “identical to those of control, uninjected subjects”. Besides, the “usefulness / effectiveness in the treatment of human cancers” value in data set [4] (Applicant's clinical studies) is “effective to some extent in aiding the regression of tumors”. For the same molecule, the “regression of tumors associated with named human cancers” value in data set [4] (cancer of esophagus, breast, bladder, colon, lung, prostate, pancreas, uterine cervix, brain, bone and lung metastases, lymphatic lymphoma) is given as “with success in the regression of tumors”.
Turning to `O=C(O)Cc1ccccc1` [sodium salt of phenylacetic acid], the results for the “effect on tumor growth, Rd/3 sarcoma” value with Rd/3 sarcoma and in the data set with Rd/3 sarcoma (listed as phenylacetic acid) were “failed to inhibit tumor growth” and “some enhancement of tumor growth”, respectively.
